{
  "source": "patent US9427471B2",
  "about": "“Method and improved pharmaceutical composition for enhancing transdermal delivery of PDE-5 inhibitor” (Tritech Biopharmaceuticals Co., Ltd., priority 2011, dated 2016)",
  "key": {"[1]": {"format": "in vitro ADME", "details": "Sprague-Dawley, rat, 1 % (wt %)", "description": "The permeation test was carried out using in vitro Franz diffusion cell with a diffusion area of 0.785 cm^2. A piece of rat (Sprague-Dawley) skin tissue was mounted between the two half-cells and fastened with a clamp. Aliquots of 1% (wt %) vardenafil with or without the addition of the enhancer of this disclosure, such as 0.3% (wt %) cocamidopropyl betaine, 1% (wt %) sodium lauroamphoacetate, 1% (wt %) isostearamidopropyl morpholine lactate, 1% (wt %) quaternium-60 or dipropyl glycol, were applied to the Donor compartment to start the experiment. The receiver compartment was filled with PBS and the temperature was held at 37° C. Samples were taken at certain time intervals and assayed by HPLC."}, "[2]": {"assay": "In vivo skin permeation analysis (applied to rabbit ear, vardenafil in blood)", "details": "gel formulations (about 0.5 ml, blood drawn after 1 hour) or skin patch (6 hours) with enhancer(s) applied to left ear of rabbit, blood from right ear artery; FIG. 2", "description": "In vivo skin permeation tests were carried out using the gel formulations of example 2.1 and the skin patch of example 2.2. Briefly, small aliquots (about 0.5 ml) of gel formulations #1 to 4 or a small piece of the skin patch (3 cm×5 cm×0.15 cm) was applied to the left ear of a rabbit, after certain period of time, 1 ml of blood was drawn from the rabbit's right ear artery and analyzed for the amount of vardenafil. Specifically, the blood was drawn after 1 hour when gel formulation was used; and 6 hours when skin patch was applied. Results are illustrated in FIG. 2."}},
  "data": [
    {"smiles": "CCCc1nc(C)c2c(=O)[nH]c(-c3cc(S(=O)(=O)N4CCN(CC)CC4)ccc3OCC)nn12", "note": "[vardenafil]", "values": [
      {"measurement": "increase of the amount of vardenafil in the receiving side of Franz Diffusion chamber as compared with control", "setting": "[1]", "value": "0.5-2 folds"},
      {"measurement": "increase of the amount of vardenafil found in the blood stream as compared with control", "setting": "[2]", "value": "4 to 5", "unit": "folds"}
    ]}
  ]
}
